According to paper PMC12250302, “Synthesis, Antimicrobial Activities, and Model of Action of Novel Tetralone Derivatives Containing Aminoguanidinium Moiety” (International Journal of Molecular Sciences, 2025):
≈ marks a conversion by molar mass, not a printed value. Entries after “also recorded” stand apart in the source; their conditions may differ.

Tests used:
[1] = test system: human embryonic kidney 293T cells (HEK 293-T); experiment: Cytotoxicity, CCK-8 method; type: cell-based
Description: (§1) The CCK-8 method was used to evaluate the toxicity of 2D to four cell lines (lung cancer cell line (A549), human liver cell line (HepG2), human embryonic kidney 293T cells (HEK 293-T), and human colon adenocarcinoma cell line (Caco-2)). Cells with a density of 1 × 10^5 cells/well were added to 96-well plates and then incubated for 24 h at 5% CO2 and 37 °C. Subsequently, after treatment with different concentrations of 2D for 24 h, the CCK-8 kit was added according to the prescribed procedure. Following an incubation at 37 °C for 0.5 h, the absorbances at 450 nm were detected. The […] was calculated according to the following formula:Cytotoxic (%) = (Atest/Acontrol) × 100%(2)

[2] = test system: human liver cell line (HepG2); experiment: Cytotoxicity, CCK-8 method; type: cell-based
Description: as §1

[3] = test system: human colon adenocarcinoma cell line (Caco-2); experiment: Cytotoxicity, CCK-8 method; type: cell-based
Description: as §1

[4] = test system: lung cancer cell line (A549); experiment: Cytotoxicity, CCK-8 method; type: cell-based
Description: as §1

[5] = test system: MRSA-2; experiment: MRSA-induced mouse skin abscess model; type: in vivo
Excerpt: The MRSA-induced mouse skin abscess model was used to assess the in vivo antibacterial effects of 2D. Female KM mice, aged 4–6 weeks and weighing 20 ± 2 g, were purchased from the Laboratory Animal Center, Lanzhou Institute of Veterinary Medicine, Chinese Academy of Agricultural Sciences. The animal experiments were approved by the Ethics Committee of Research Involving Animals of the Lanzhou Institute of Husbandry and Pharmaceutical Science of CAAS (Approval number: 2025-03) and performed in accordance with the guidelines of the Ethics Committee for Animal Experiments. Prior to the formal experiment, all mice were acclimated for 5 days. The mice were kept in a pathogen-free environment with a 12 h light/12 h dark cycle, 50% ± 10% humidity, and a temperature of 24 °C ± 2 °C. […] The depilation method employed was as follows: depilatory paste was applied to the designated area for 10 min, after which it was thoroughly washed with 0.9% saline. The mice were semi-anesthetized by intraperitoneal injection with sodium Ulatan (TCI, 20%, 100 μL). […] After a 24 h interval, the administration was repeated, and 24 h after the last administration, the volume of abscess was measured and calculated. Then, the skin of the infected site and main organs were collected for tissue bacterial load and pathological detection.

[6] = test system: MRSA-2 biofilm; experiment: Biofilm formation inhibition assay (crystal violet); type: cell-based, Staphylococcus aureus; settings: MRSA-2
Description: The effect of 2D on the biofilm formation of MRSA was evaluated. MRSA-2 was cultured in MH broth for a period of 3–5 h, after which it was diluted to a density of 1 × 10^6 CFU/mL with MH broth. […] After the removal of the suspended bacteria, the well plates were washed thrice with PBS. Then, 150 μL of methanol was added and fixed for 30 min. Subsequent to air-drying, 150 μL of a 0.1% crystal violet aqueous solution was added. Following a 15 min staining period, the excess crystal violet was removed by rinsing with flowing water. Finally, 150 μL of anhydrous ethanol was added and the mixture was incubated for 20 min. The optical density at 575 nm was detected.

[7] = test system: MRSA-2; experiment: Bactericidal time-kill kinetics assay; type: cell-based, Staphylococcus aureus; settings: 2, 4 and 8 µg/mL, 0-24 h
Description: (§2) S. aureus (ATCC 29213) and MRSA-2 were cultivated in MH broth until the logarithmic growth phase and then diluted to 1 × 10^7 CFU/mL, respectively. […] After a specified time interval (0, 1, 2, 4, 8, 12, and 24 h), the culture suspension was serially diluted in 0.9% saline over a concentration range from 10^−1 to 10^−9. A volume of 100 μL of the obtained diluent and culture solution was dispensed onto a sterile MH agar plate. The plate was subsequently cultured at 37 °C for a duration of 24 h. The total number of colonies was enumerated and expressed as log10(CFU/mL).

[8] = test system: S. aureus (ATCC 29213); experiment: Bactericidal time-kill kinetics assay; type: cell-based, Staphylococcus aureus; settings: 2, 4 and 8 µg/mL, 0-24 h
Description: as §2

[9] = test system: P. aeruginosa ATCC 27853; experiment: MIC and MBC testing, broth microdilution; type: cell-based, Pseudomonas aeruginosa; settings: Pseudomonas aeruginosa
Method in brief: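 Visible growth was scored after 18 h at 37 °C, and the MIC was taken as the lowest compound concentration showing none. Bacteria were grown to logarithmic phase in MH broth and diluted to 1 × 10^6 CFU/mL before combining with twofold compound dilutions.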

MIC ([9]; ATCC27853, 18 h, read-out: MIC): 16 µg/mL (≈ 50.6 µM)
SMILES: [H]/N=C(\N)NN=C1CCCc2cc(OCCCCCCC)ccc21 [Compound 2D, (E)-2-(6-(heptyloxy)-3,4-dihydronaphthalen-1(2H)-ylidene)hydrazine-1-carboximidamide]
IC50 ([1]; Homo sapiens, HEK 293-T, 24 h, CCK-8): 13.1 µg/mL (≈ 41.4 µM) | Selectivity index (SI) ([1]; SI = IC50 (HEK 293-T)/MIC ATCC 29213): 26.18 | IC50 ([2]; Homo sapiens, HepG2, 24 h, CCK-8): 6 µg/mL (≈ 19 µM) | Selectivity index (SI) ([2]; SI = IC50 (HepG2)/MIC ATCC 29213): 12.00 | IC50 ([3]; Homo sapiens, CaCo-2, 24 h, CCK-8): 9.86 µg/mL (≈ 31.2 µM) | Selectivity index (SI) ([3]; SI = IC50 (CaCo-2)/MIC ATCC 29213): 19.72 | IC50 ([4]; Homo sapiens, A549, 24 h, CCK-8): 3.57 µg/mL (≈ 11.3 µM) | Selectivity index (SI) ([4]; SI = IC50 (A549)/MIC ATCC 29213): 7.14 | purulent lesions at the infection site (skin histopathology) ([5]; 5 mg/kg): significantly smaller | volume of skin abscess ([5]; 5 mg/kg, injected 2 h and 24 h postinfection, compared to model and solvent group): reduced volume | purulent foci (skin histopathology) ([5]; 10 mg/kg): almost no purulent foci | skin abscess appearance ([5]; 10 mg/kg, injected 2 h and 24 h postinfection): devoid of any discernible abscesses | bacterial load of the skin at the infected site ([5]; 2D 5 and 10 mg/kg, vancomycin 5 mg/kg, compared with model and solvent group): decreased bacterial load; also recorded: significantly reduced | histopathology of the major organs ([5]; infected mice after treatment, H&E): no discernible lesions | reduction of biofilm formation ([6]; 1 μg/mL (1MIC), 24 h): more than 92% | inhibition of biofilm formation ([6]; 2–32 μg/mL (2-32MIC)): almost completely inhibited the formation of biofilm | inhibition at 0.25 µg/mL ([6]; Staphylococcus aureus, 0.25 μg/mL (1/4MIC), 24 h, read-out: inhibition rate of biofilm formation): ~18.5% | inhibition at 0.5 µg/mL ([6]; Staphylococcus aureus, 0.5 μg/mL (1/2MIC), 24 h, read-out: inhibition rate of biofilm formation): ~37.8% | time-kill response [7]: concentration-dependent and time-dependent bactericidal response | time-kill response [8]: concentration-dependent and time-dependent bactericidal response | MBC ([9]; ATCC27853, read-out: MBC): 32 µg/mL (≈ 101 µM)
